Laboratory results as given in patent publication US20250206738A1, “WRN INHIBITORS” (Nimbus Wadjet, Inc., priority 2023, published 2025).
pEC50, pIC50: −log10 of the molar value. Where two headings read alike, the source gives them in different places.

Tests used:
[1] = biological target: T1, human Werner helicase (WRN, Uniprot Q14191, amino acids 517-1235 with L1074F point mutation; WRN-BV08) (Homo sapiens, UniProt Q14191, L1074F); assay: WRN (BV08) ADP-Glo assay; type: biochemical; conditions: WRN-BV08 (aa 517-1235, L1074F); read-out: ADP-Glo_hWRN_IC50
T1 construct: Uniprot Q14191, amino acids 517-1235 with L1074F point mutation; 8xHis (C, cleaved yes); TEV cleavage site (ENLYFQG) (C, cleaved yes); made in house; host or cells: Sf9 insect cells (baculovirus, pFastBac)
Procedure, shortened: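 ADP formed by untagged WRN helicase fragment (aa 517-1235, L1074F; 0.15 nM final) on 0.1 nM DNA duplex with […], 60 min at 25 °C after 15 min compound preincubation, pH 7.5 Bicine buffer. Luminescent ADP-Glo readout; IC50 from 4-parameter fit of % inhibition.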

[2] = tested on: p21 induction in HCT 116 cells; assay: p21 induction in cells (In-Cell Western, p21/GAPDH ratio); type: cell-based; conditions: 24 h compound incubation, read-out: P21_EC50
Procedure, shortened: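 p21 and GAPDH signals quantified by In-Cell Western after 24 h compound exposure of HCT 116 cells (11 concentrations, 2-fold steps, usual top 10 μM). Percent activation from p21/GAPDH ratio relative to DMSO (low) and internal WRN inhibitor (high) controls; curve fit gave EC50.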

T1 sequence (Q14191 with tags, fused parts or gaps L1074F): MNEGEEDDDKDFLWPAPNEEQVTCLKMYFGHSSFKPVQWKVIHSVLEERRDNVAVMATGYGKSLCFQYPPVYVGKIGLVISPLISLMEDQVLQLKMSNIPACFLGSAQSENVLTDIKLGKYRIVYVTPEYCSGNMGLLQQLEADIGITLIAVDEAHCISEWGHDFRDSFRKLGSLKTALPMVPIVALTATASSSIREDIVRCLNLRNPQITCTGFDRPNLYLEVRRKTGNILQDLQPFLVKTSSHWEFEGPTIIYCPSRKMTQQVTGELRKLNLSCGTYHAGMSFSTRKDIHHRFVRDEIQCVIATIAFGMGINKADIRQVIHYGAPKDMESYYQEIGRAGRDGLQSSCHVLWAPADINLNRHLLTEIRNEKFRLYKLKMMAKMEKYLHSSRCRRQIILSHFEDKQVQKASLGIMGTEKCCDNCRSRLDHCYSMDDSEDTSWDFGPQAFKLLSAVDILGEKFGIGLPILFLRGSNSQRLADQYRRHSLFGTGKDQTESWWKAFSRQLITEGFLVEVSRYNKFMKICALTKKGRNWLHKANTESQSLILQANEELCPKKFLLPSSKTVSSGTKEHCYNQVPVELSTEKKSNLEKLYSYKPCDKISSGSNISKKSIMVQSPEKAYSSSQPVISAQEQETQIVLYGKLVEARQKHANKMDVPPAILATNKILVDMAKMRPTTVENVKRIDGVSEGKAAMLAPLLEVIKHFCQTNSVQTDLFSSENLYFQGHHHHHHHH

| SMILES | pIC50 [1] | pEC50 ([2]; Homo sapiens, HCT-116, 24 h) | pEC50 [2] |
| --- | --- | --- | --- |
| CCc1c(N2CCN(C(=O)c3c(OC)ncc(C4CCOC4)c3O)CC2)c(=O)c2nn(-c3ccnc(OC)c3)nc2n1CC(=O)NC12CC(C(C)C)(C1)C2 (single isomer, unassigned) [I-65] | 7.30 to 8.30 |  | ≥ 6.30 |
| CCc1c(C2=CCN(C(=O)c3ncnc(C)c3O)CC2C)c(=O)c2nn(-c3ccnc(OC)c3)nc2n1CC(=O)NC12CC(C(C)C)(C1)C2 (single isomer, unassigned) [I-98] | 7.30 to 8.30 |  | 5.70 to 6.30 |
| CCc1c(N2CCN(C(=O)c3c(O)ccc4ncoc34)CC2)c(=O)n2nc(-c3ccnc(OC)c3)nc2n1CC(=O)NC12CC(C3CC3)(C1)C2 [I-36, N-(3-cyclopropylbicyclo[1.1.1]pentan-1-yl)-2-(5-ethyl-6-(4-(6-hydroxybenzo[d]oxazole-7-carbonyl)piperazin-1-yl)-2-(2-methoxypyridin-4-yl)-7-oxo-[1,2,4]triazolo[1,5-a]pyrimidin-4(7H)-yl)acetamide] | ≥ 8.30 | ≥ 6.30 |  |
| CCc1c(N2CCN(C(=O)c3ncnc(C)c3O)[C@H]3CC[C@@H]32)c(=O)n2nc(-c3ccnc(OC)c3)nc2n1CC(=O)NC12CC(C(F)(F)F)(C1)C2 [I-48, 2-(5-ethyl-6-((1S,6S)-5-(5-hydroxy-6-methylpyrimidine-4-carbonyl)-2,5-diazabicyclo[4.2.0]octan-2-yl)-2-(2-methoxypyridin-4-yl)-7-oxo-[1,2,4]triazolo[1,5-a]pyrimidin-4(7H)-yl)-N-(3-(trifluoromethyl)bicyclo[1.1.1]pentan-1-yl)acetamide] | 7.30 to 8.30 | ≥ 6.30 |  |
| CCc1c(N2CCN(C(=O)c3ncnc(C)c3O)CC2)c(=O)n2nc(N(C)C)nc2n1CC(=O)NC12CC(C(F)(F)F)(C1)C2 [I-33, 2-(2-(dimethylamino)-5-ethyl-6-(4-(5-hydroxy-6-methylpyrimidine-4-carbonyl)piperazin-1-yl)-7-oxo-[1,2,4]triazolo[1,5-a]pyrimidin-4(7H)-yl)-N-(3-(trifluoromethyl)bicyclo[1.1.1]pentan-1-yl)acetamide] | 6.30 to 7.00 | < 5.30 |  |
| CCc1c(N2CCN(C(=O)c3ncnc(C)c3O)CC2)c(=O)n2nc(C3=CCN(C(=O)COC)CC3)nc2n1CC(=O)NC12CC(C3CC3)(C1)C2 [I-18, N-(3-cyclopropylbicyclo[1.1.1]pentan-1-yl)-2-(5-ethyl-6-(4-(5-hydroxy-6-methylpyrimidine-4-carbonyl)piperazin-1-yl)-2-(1-(2-methoxyacetyl)-1,2,3,6-tetrahydropyridin-4-yl)-7-oxo-[1,2,4]triazolo[1,5-a]pyrimidin-4(7H)-yl)acetamide] | 7.30 to 8.30 | < 5.30 |  |
| CCc1c(N2CCN(C(=O)c3c(O)ccc4ncoc34)CC2)c(=O)n2nc(-c3ccnc(OC)c3)nc2n1CC(=O)NC12CC(C(F)(F)C(F)F)(C1)C2 [I-41, 2-(5-ethyl-6-(4-(6-hydroxybenzo[d]oxazole-7-carbonyl)piperazin-1-yl)-2-(2-methoxypyridin-4-yl)-7-oxo-[1,2,4]triazolo[1,5-a]pyrimidin-4(7H)-yl)-N-(3-(1,1,2,2-tetrafluoroethyl)bicyclo[1.1.1]pentan-1-yl)acetamide] | 7.30 to 8.30 | ≥ 6.30 |  |
| CCc1c(N2CCN(C(=O)c3c(O)cc(OC)cc3OC)CC2)c(=O)c2nn(-c3ccnc(OC)c3)nc2n1CC(=O)NC12CC(C3CC3)(C1)C2 [I-132, N-{3-cyclopropylbicyclo[1.1.1]pentan-1-yl}-2-{5-ethyl-6-[4-(2-hydroxy-4,6-dimethoxybenzoyl)piperazin-1-yl]-2-(2-methoxypyridin-4-yl)-7-oxo-2H,4H,7H-[1,2,3]triazolo[4,5-b]pyridin-4-yl}acetamide] | 7.30 to 8.30 | 5.30 to 5.70 |  |
| CCc1c(N2CCN(C(=O)c3ncc4c(c3O)CCO4)CC2)c(=O)n2nc(C3=CCOCC3)nc2n1CC(=O)NC12CC(CC)(C1)C2 [I-14, 2-(2-(3,6-dihydro-2H-pyran-4-yl)-5-ethyl-6-(4-(4-hydroxy-2,3-dihydrofuro[2,3-c]pyridine-5-carbonyl)piperazin-1-yl)-7-oxo-[1,2,4]triazolo[1,5-a]pyrimidin-4(7H)-yl)-N-(3-ethylbicyclo[1.1.1]pentan-1-yl)acetamide] | 7.30 to 8.30 | 5.70 to 6.30 |  |
| CCc1c(N2CCN(C(=O)c3c(O)ccc4ncoc34)CC2)c(=O)n2nc(-c3ccnc(OC)c3)nc2n1CC(=O)NC12CC(CC)(C1)C2 [I-23, 2-(5-ethyl-6-(4-(6-hydroxybenzo[d]oxazole-7-carbonyl)piperazin-1-yl)-2-(2-methoxypyridin-4-yl)-7-oxo-[1,2,4]triazolo[1,5-a]pyrimidin-4(7H)-yl)-N-(3-ethylbicyclo[1.1.1]pentan-1-yl)acetamide] | 7.30 to 8.30 | ≥ 6.30 |  |
| CCc1c(N2CCN(C(=O)c3ncnc(C)c3O)CC2)c(=O)c2sc(-c3ccnc(OC)c3)nc2n1CC(=O)NC12CC(C(F)(F)F)(C1)C2 [I-25, 2-(5-ethyl-6-(4-(5-hydroxy-6-methylpyrimidine-4-carbonyl)piperazin-1-yl)-2-(2-methoxypyridin-4-yl)-7-oxothiazolo[4,5-b]pyridin-4(7H)-yl)-N-(3-(trifluoromethyl)bicyclo[1.1.1]pentan-1-yl)acetamide] | 7.30 to 8.30 | < 5.30 |  |

Next, values leading:

| pIC50 [1] | pEC50 ([2]; Homo sapiens, HCT-116, 24 h) | pEC50 [2] | SMILES |
| --- | --- | --- | --- |
| 7.30 to 8.30 | 5.70 to 6.30 |  | CCc1c(N2CCN(C(=O)c3ncnc(C)c3O)[C@H]3CC[C@@H]32)c(=O)c2nc(N(C)C)cnc2n1CC(=O)NC12CC(C3CC3)(C1)C2 [I-232, N-(3-cyclopropylbicyclo[1.1.1]pentan-1-yl)-2-(2-(dimethylamino)-6-ethyl-7-((1S,6S)-5-(5-hydroxy-6-methylpyrimidine-4-carbonyl)-2,5-diazabicyclo[4.2.0]octan-2-yl)-8-oxopyrido[2,3-b]pyrazin-5(8H)-yl)acetamide] |
| 7.30 to 8.30 | 5.70 to 6.30 |  | CCc1c(N2CCN(C(=O)c3c(O)ccc4ncoc34)CC2)c(=O)n2nc(-c3ccnc(OC)c3)nc2n1CC(=O)NC1CC2(CCC2)C1 [I-206, 2-(5-ethyl-6-(4-(6-hydroxybenzo[d]oxazole-7-carbonyl)piperazin-1-yl)-2-(2-methoxypyridin-4-yl)-7-oxo-[1,2,4]triazolo[1,5-a]pyrimidin-4(7H)-yl)-N-(spiro[3.3]heptan-2-yl)acetamide] |
| 6.30 to 7.00 | 5.30 to 5.70 |  | CCc1c(N2CCN(C(=O)c3ncnc(C)c3O)[C@H]3CC[C@@H]32)c(=O)c2c(nnn2C2CC2)n1CC(=O)NC12CC(C3CC3)(C1)C2 [I-245, 2-(1-cyclopropyl-5-ethyl-6-((1S,6S)-5-(5-hydroxy-6-methylpyrimidine-4-carbonyl)-2,5-diazabicyclo[4.2.0]octan-2-yl)-7-oxo-1,7-dihydro-4H-[1,2,3]triazolo[4,5-b]pyridin-4-yl)-N-(3-cyclopropylbicyclo[1.1.1]pentan-1-yl)acetamide] |
| 7.00 to 7.30 | < 5.30 |  | CCc1c(N2CCN(C(=O)c3ncnc(C)c3O)[C@H]3CC[C@@H]32)c(=O)c2nc(N(C)C)cnc2n1CC(=O)NC1CC2(CC(C)C2)C1 (stereo partly drawn) [I-238, 2-(2-(dimethylamino)-6-ethyl-7-((1S,6S)-5-(5-hydroxy-6-methylpyrimidine-4-carbonyl)-2,5-diazabicyclo[4.2.0]octan-2-yl)-8-oxopyrido[2,3-b]pyrazin-5(8H)-yl)-N-(6-methylspiro[3.3]heptan-2-yl)acetamide] |
| 7.30 to 8.30 | 5.70 to 6.30 |  | CCc1c(N2CCN(C(=O)c3ncc4c(c3O)CCO4)CC2)c(=O)n2nc(C3=CCOCC3)nc2n1CC(=O)NC12CC(C3CCC3)(C1)C2 [I-211, N-(3-cyclobutylbicyclo[1.1.1]pentan-1-yl)-2-(2-(3,6-dihydro-2H-pyran-4-yl)-5-ethyl-6-(4-(4-hydroxy-2,3-dihydrofuro[2,3-c]pyridine-5-carbonyl)piperazin-1-yl)-7-oxo-[1,2,4]triazolo[1,5-a]pyrimidin-4(7H)-yl)acetamide] |
| 7.30 to 8.30 | < 5.30 |  | CCc1c(N2CCN(C(=O)c3ncccc3C(=O)O)CC2)c(=O)c2nn(-c3ccnc(OC)c3)nc2n1CC(=O)NC12CC(C3CC3)(C1)C2 [I-216, 2-(4-(4-(2-((3-cyclopropylbicyclo[1.1.1]pentan-1-yl)amino)-2-oxoethyl)-5-ethyl-2-(2-methoxypyridin-4-yl)-7-oxo-4,7-dihydro-2H-[1,2,3]triazolo[4,5-b]pyridin-6-yl)piperazine-1-carbonyl)nicotinic acid] |
| 7.30 to 8.30 | < 5.30 |  | CCc1c(N2CCN(C(=O)c3ncnc(C)c3O)[C@H]3CC[C@@H]32)c(=O)c2nn(-c3ccnc(OC(F)F)c3)nc2n1CC(=O)NC12CC(C3CC3)(C1)C2 [I-223, N-(3-cyclopropylbicyclo[1.1.1]pentan-1-yl)-2-(2-(2-(difluoromethoxy)pyridin-4-yl)-5-ethyl-6-((1S,6S)-5-(5-hydroxy-6-methylpyrimidine-4-carbonyl)-2,5-diazabicyclo[4.2.0]octan-2-yl)-7-oxo-2,7-dihydro-4H-[1,2,3]triazolo[4,5-b]pyridin-4-yl)acetamide] |
| 6.30 to 7.00 | < 5.30 |  | CCc1c(N2CCN(C(=O)c3cnn(C)c3)CC2)c(=O)n2nc(-c3ccnc(OC)c3)nc2n1CC(=O)N[C@@H]1C[C@H]1c1c(F)cccc1F (racemic) [I-244, rac-N-((1R,2S)-2-(2,6-difluorophenyl)cyclopropyl)-2-(5-ethyl-2-(2-methoxypyridin-4-yl)-6-(4-(1-methyl-1H-pyrazole-4-carbonyl)piperazin-1-yl)-7-oxo-[1,2,4]triazolo[1,5-a]pyrimidin-4(7H)-yl)acetamide] |
